Our source for the chromatographic logP and logP values is patent publication US6403600B1, “Methoximinophenylacetic acid amides” (Bayer Aktiengesellschaft, priority 1998, dated 2002).

A short description of this series: logP determination by HPLC (EEC-Directive 79/831 Annex V. A8). The format is physicochemical. To be noted: gradient method, acetonitrile/0.1% aqueous phosphoric acid.
`CON=C(C(=O)N(C)SC(=O)OC)c1ccccc1COc1ccccc1C` [Example 1, 2-methoximino-2-[2-(methylphenoxy)-methylphenyl]-N-methyl-N-methoxycarbonylthio-acetamide]: the chromatographic logP stood at 4.25.
`CON=C(C(=O)N(C)SC(F)(Cl)Cl)c1ccccc1Oc1ncnc(Oc2ccccc2Br)c1F` [Example 2, 2-{2-[6-(2-bromo-phenoxy)-5-fluoro-pyrimidin-4-yloxy]-phenyl}-N-(dichlorofluoro-methyl-sulphanyl)-2-methoxyimino-N-methylacetamide] yielded a chromatographic logP of 5.1.
With `CON=C(C(=O)N(C)SC(F)(Cl)Cl)c1ccccc1Oc1ncnc(Oc2ccccc2Cl)c1F` [Example 3], the logP amounted to 5.05.
Same read-out and setting: the result for `CON=C(C(=O)NC#N)c1ccccc1COc1ccccc1C` [Example 4] reads 3.34; that for `CON=C(C(=O)N(C)SC(F)(Cl)Cl)c1ccccc1COc1ccccc1C` [Example 5], 5.35.
On the same count and under the same terms, the result for `CON=C(C(=O)N(C)SC(Cl)(Cl)Cl)c1ccccc1COc1ccccc1C` [Example 6] reads 5.56; that for `CON=C(C(=O)N(C)Sc1ccc(F)cc1)c1ccccc1COc1ccccc1C` [Example 7], 5.11; that for `CON=C(C(=O)N(C)SN(C)C(=O)OC)c1ccccc1COc1ccccc1C` [Example 8], 4.24.
The same measure, in the same setting: the result for `CCCCN(CCCC)SN(C)C(=O)C(=NOC)c1ccccc1COc1ccccc1C` [Example 9] reads 6.83; that for `CON=C(C(=O)N(C)C#N)c1ccccc1COc1ccccc1C` [Example 10], 3.67.
`CON=C(C(=O)N(C)Sc1ccc(OC)cc1)c1ccccc1COc1ccccc1C` [Example 11] registered a logP of 4.98.
On the same count and under the same terms, next, `CCOC(=O)N(C)C(=O)C(=NOC)c1ccccc1COc1ccccc1C` [Example 12]: 4.46; `CON=C(C(=O)N(C)Sc1ccc(C(=O)OC)cc1)c1ccccc1COc1ccccc1C` [Example 13]: 4.89.
Same read-out and setting: next, `CON=C(C(=O)N(C)C(=O)OCC(C)C)c1ccccc1COc1ccccc1C` [Example 14]: 5.21; `CCCCOP(=O)(OC)N(C)C(=O)C(=NOC)c1ccccc1COc1ccccc1C` (stereo not shown) [Example 15]: 4.53; `CON=C(C(=O)N(C)C(=O)N(C)SC(F)(Cl)Cl)c1ccccc1COc1ccccc1C` [Example 16]: 5.08.
`CON=C(C(=O)N(C)C(=O)N(C)C)c1ccccc1COc1ccccc1C` [Example 17] yielded a logP of 3.38.
Still for that read-out and setting: the result for `CON=C(C(=O)N(C)S(C)(=O)=O)c1ccccc1COc1ccccc1C` [Example 18] reads 3.82; that for `CCOCN(C)C(=O)C(=NOC)c1ccccc1COc1ccccc1C` [Example 19], 4.02.
The same measure, in the same setting: the result for `CON=C(C(=O)N(C)Sc1ccc(Cl)cc1)c1ccccc1COc1ccccc1C` [Example 20] reads 5.53; that for `CON=C(C(=O)N(C)Sc1ccccc1)c1ccccc1COc1ccccc1C` [Example 21], 5.11; that for `CON=C(C(=O)N(C)Sc1cccc(C(F)(F)F)c1)c1ccccc1COc1ccccc1C` [Example 22], 5.5.
Molecule `CON=C(C(=O)N(C)Sc1ccc(OC(F)(F)F)c(Cl)c1)c1ccccc1COc1ccccc1C` [Example 23] displayed a logP of 5.99.
Regarding `CON=C(C(=O)N(C)Sc1ccc(C)cc1)c1ccccc1COc1ccccc1C` [Example 24], the log partition coefficient (logP) is recorded as 5.45.
Molecule `CON=C(C(=O)N(C)Sc1ccc(Cl)c(C(F)(F)F)c1)c1ccccc1COc1ccccc1C` [Example 25] registered a logP of 5.8.
`CON=C(C(=O)N(C)C(=O)C(=O)OC)c1ccccc1COc1ccccc1C` [Example 26]: the logP is listed as 3.96.
Molecule `CCSC(=O)N(C)C(=O)C(=NOC)c1ccccc1COc1ccccc1C` [Example 27] yielded a logP of 4.91.
The molecule `CON=C(C(=O)NSC(F)(Cl)Cl)c1ccccc1COc1ccccc1C` [Example 28] displayed a logP of 4.32.
`CCOC(=O)N(C(=O)OCC)C(=O)C(=NOC)c1ccccc1COc1ccccc1C` [Example 29]: the logP turned out to be 4.42.
`CCOC(=O)N(SC(F)(Cl)Cl)C(=O)C(=NOC)c1ccccc1COc1ccccc1C` [Example 30]: the logP is 5.35.
As for `CNC(=O)N(C)C(=O)C(=NOC)c1ccccc1COc1ccccc1C` [Example 31], the logP was 3.29.
Turning to `CON=C(C(=O)N(C)SC(F)(Cl)Cl)c1ccccc1CON=C(C)c1cccc(C(F)(F)F)c1` [Example 32], the logP was 5.74.
`CON=C(C(=O)N(C)C(=O)OC)c1ccccc1COc1ccccc1C` [Example 33] returned a lipophilicity (logP) of 4.11.
The same measure, in the same setting: next, `CON=C(C(=O)N(C)C(=O)N(SC(F)(Cl)Cl)c1ccc(Cl)cc1)c1ccccc1COc1ccccc1C` [Example 34]: 6.21; `CCS(=O)(=O)N(C)C(=O)N(C)C(=O)C(=NOC)c1ccccc1COc1ccccc1C` [Example 35]: 4.05.
`CON=C(C(=O)N(C)C(=O)N1CCOCC1)c1ccccc1COc1ccccc1C` [Example 36] showed a lipophilicity (logP) of 3.32.
As to `CON=C(C(=O)N(C)C(=O)OCCBr)c1ccccc1COc1ccccc1C` [Example 37], the logP came to 4.6.
Same read-out and setting: next, `CCOC(=O)N(C)C(=O)C(=NOC)c1ccccc1CON=C(C)c1cccc(C(F)(F)F)c1` [Example 38]: 4.91; `CCOCN(C)C(=O)C(=NOC)c1ccccc1CON=C(C)c1cccc(C(F)(F)F)c1` [Example 39]: 4.58.
Regarding `CON=C(C(=O)N(C)SC(=O)OC)c1ccccc1CON=C(C)c1cccc(C(F)(F)F)c1` [Example 40], the logP is given as 4.75.
Turning to `CCOC(=O)N(C)C(=O)C(=NOC)c1ccccc1Oc1ccccc1` [Example 41], the logP stood at 3.59.
`CCOCN(C)C(=O)C(=NOC)c1ccccc1Oc1ccccc1` [Example 42] came in with a lipophilicity (logP) of 3.36.
Still for that read-out and setting: the result for `CON=C(C(=O)N(C)SC(=O)OC)c1ccccc1Oc1ccccc1` [Example 43] reads 3.59; that for `CON=C(C(=O)N(C)SC(F)(Cl)Cl)c1ccccc1Oc1ccc(OC(F)(F)F)cc1Cl` [Example 44], 5.87.
In turn, `CON=C(C(=O)N(C)SN(C)C(=O)C(=NOC)c1ccccc1COc1ccccc1C)c1ccccc1COc1ccccc1C` [Example 45] displayed a chromatographic logP of 6.1.
In the case of `CON=C(C(=O)N(C)SC(F)(Cl)Cl)c1ccccc1Oc1ccccc1` [Example 47], the logP turned out to be 4.75.
Same read-out and setting: the result for `CON=C(C(=O)N(C)Sc1ccc(OC)cc1)c1ccccc1Oc1ccccc1` [Example 48] reads 4.31.
Still for that read-out and setting: the result for `CON=C(C(=O)N(C)C(=O)N(C)SC(F)(Cl)Cl)c1ccccc1Oc1ccccc1` [Example 49] reads 4.53.
`CON=C(C(=O)N(C)SC(F)(F)F)c1ccccc1Oc1ccccc1` [Example 50] returned a logP of 4.38.
Same read-out and setting: the result for `CON=C(C(=O)N(SC(F)(Cl)Cl)SC(F)(Cl)Cl)c1ccccc1COc1ccccc1C` [Example 51] reads 6.61; that for `CCSN(C)C(=O)C(=NOC)c1ccccc1COc1ccccc1C` [Example 52], 4.55.
Same read-out and setting: next, `CCN(SC(F)(Cl)Cl)C(=O)C(=NOC)c1ccccc1COc1ccccc1C` [Example 53]: 5.74; `CON=C(C(=O)N(C)SC)c1ccccc1COc1ccccc1C` [Example 54]: 4.22; `CON=C(C(=O)N(C)SC(C)(C)C)c1ccccc1COc1ccccc1C` [Example 55]: 5.05.
On the same count and under the same terms, the result for `CON=C(C(=O)N(C)SC(F)(F)F)c1ccccc1COc1ccccc1C` [Example 56] reads 4.93; that for `CON=C(C(=O)N(C)SC(C)(F)F)c1ccccc1COc1ccccc1C` [Example 57], 4.62; that for `CCSCc1ccccc1OCc1ccccc1C(=NOC)C(=O)N(C)SC(F)(Cl)Cl` [Example 58], 5.59.
Regarding `CON=C(C(=O)N(C)C(=O)N(C)SC(F)(F)F)c1ccccc1COc1ccccc1C` [Example 59], the logP was found to be 4.75.
For the molecule `CON=C(C(=O)N(SC(F)(Cl)Cl)C1CC1)c1ccccc1COc1ccccc1C` [Example 60], the lipophilicity (logP) is recorded as 5.58.
The same measure, in the same setting: next, `CON=C(C(=O)N(SC(F)(F)F)C1CC1)c1ccccc1COc1ccccc1C` [Example 61]: 5.17; `CCN(SC(F)(F)F)C(=O)C(=NOC)c1ccccc1COc1ccccc1C` [Example 62]: 5.3.
With `CON=C(C(=O)N(C)SC(F)(Cl)Cl)c1ccccc1COc1cccc(-c2ccccc2)c1` [Example 65], the logP was 5.77.
On to `CON=C(C(=O)N(C)SC(F)(F)F)c1ccccc1COc1cccc(-c2ccccc2)c1` [Example 66], for which the log partition coefficient (logP) stood at 5.36.
On the same count and under the same terms, next, `CON=C(C(=O)N(C)SC(F)(Cl)Cl)c1ccccc1COc1cc(C)ccc1C` [Example 67]: 5.68.
`CON=C(C(=O)N(C)SC(F)(F)F)c1ccccc1COc1cc(C)ccc1C` [Example 68] gave a logP of 5.25.
The molecule `CON=C(C(=O)N(C)SC(F)(Cl)Cl)c1ccccc1COc1cc(F)ccc1F` [Example 69] registered a logP of 4.86.
As to `CON=C(C(=O)N(C)SC(F)(F)F)c1ccccc1COc1cc(F)ccc1F` [Example 70], the logP is on record as 4.48.
Molecule `CON=C(C(=O)N(C)SC)c1ccccc1CON=C(C)c1cccc(C(F)(F)F)c1` [Example 71] had a logP of 4.73.
In turn, `CON=C(C(=O)N(C)Sc1ccccc1)c1ccccc1CON=C(C)c1cccc(C(F)(F)F)c1` [Example 72] registered a logP of 5.48.
On the same count and under the same terms, the result for `CCSN(C)C(=O)C(=NOC)c1ccccc1CON=C(C)c1cccc(C(F)(F)F)c1` [Example 73] reads 5.02; that for `CON=C(C(=O)N(C)Sc1cccc(C(F)(F)F)c1)c1ccccc1CON=C(C)c1cccc(C(F)(F)F)c1` [Example 74], 5.84.
The same measure, in the same setting: next, `CON=C(C(=O)N(C)SC(F)(F)F)c1ccccc1CON=C(C)c1cccc(C(F)(F)F)c1` [Example 75]: 5.36; `CON=C(C(=O)N(C)C(=O)N(C)SC(F)(F)F)c1ccccc1CON=C(C)c1cccc(C(F)(F)F)c1` [Example 76]: 5.22.

Broadly, the chromatographic logP is a lipophilicity value derived from retention on a column. Low values mean lower lipophilicity, high ones higher lipophilicity. What is called logP is a log measure of how a compound divides between an organic and an aqueous phase. Higher therefore signals a more lipophilic compound.
